From the supplement of paper PMC5908809

How the values were obtained:
[1] = tested on: NK-92 (IL-2 2.5 ng/mL); experiment: drug sensitivity score (DSS) (DSS units); higher = more sensitive; extreme values may be limits of the assay; conditions: 72 h
[2] = tested on: normal primary NK cells, pool 1 (3 donors) (IL-2 2.5 ng/mL); experiment: as above; conditions: 72 h
[3] = tested on: normal primary NK cells, pool 3 (3 donors) (IL-2 2.5 ng/mL); experiment: as above; conditions: 72 h
[4] = tested on: IMC-1 (IL-2 20 ng/mL); experiment: as above; conditions: 72 h
[5] = tested on: normal primary NK cells, pool 2 (3 donors) (IL-2 2.5 ng/mL); experiment: as above; conditions: 72 h
[6] = tested on: NKL (IL-2 2.5 ng/mL); experiment: as above; conditions: 72 h
[7] = tested on: KAI3 (IL-2 2.5 ng/mL); experiment: as above; conditions: 72 h
[8] = tested on: normal primary NK cells, pool 1 (3 donors), resting (IL-2 0 ng/mL); experiment: as above; conditions: 72 h
[9] = tested on: SNK-6 (IL-2 2.5 ng/mL); experiment: as above; conditions: 72 h
[10] = tested on: DERL-7 (IL-2 2.5 ng/mL); experiment: as above; conditions: 72 h
[11] = tested on: YT (IL-2 2.5 ng/mL); experiment: as above; conditions: 72 h
[12] = tested on: NK-YS (IL-2 2.5 ng/mL); experiment: as above; conditions: 72 h
[13] = tested on: KHYG-1 (IL-2 2.5 ng/mL); experiment: as above; conditions: 72 h
[14] = tested on: NK-92 (IL-2 2.5 ng/mL); experiment: percent inhibition of viability; higher = more inhibition; conditions: 72 h
[15] = tested on: normal primary NK cells, pool 1 (3 donors) (IL-2 2.5 ng/mL); experiment: as above; conditions: 72 h
[16] = tested on: normal primary NK cells, pool 3 (3 donors) (IL-2 2.5 ng/mL); experiment: as above; conditions: 72 h
[17] = tested on: IMC-1 (IL-2 20 ng/mL); experiment: as above; conditions: 72 h
[18] = tested on: normal primary NK cells, pool 2 (3 donors) (IL-2 2.5 ng/mL); experiment: as above; conditions: 72 h
[19] = tested on: NKL (IL-2 2.5 ng/mL); experiment: as above; conditions: 72 h
[20] = tested on: KAI3 (IL-2 2.5 ng/mL); experiment: as above; conditions: 72 h
[21] = tested on: normal primary NK cells, pool 1 (3 donors), resting (IL-2 0 ng/mL); experiment: as above; conditions: 72 h
[22] = tested on: SNK-6 (IL-2 2.5 ng/mL); experiment: as above; conditions: 72 h
[23] = tested on: DERL-7 (IL-2 2.5 ng/mL); experiment: as above; conditions: 72 h
[24] = tested on: YT (IL-2 2.5 ng/mL); experiment: as above; conditions: 72 h
[25] = tested on: NK-YS (IL-2 2.5 ng/mL); experiment: as above; conditions: 72 h
[26] = tested on: KHYG-1 (IL-2 2.5 ng/mL); experiment: as above; conditions: 72 h
[27] = tested on: normal NK cells expanded with K562-aAPC; experiment: as above; conditions: 72 h, IL-2 2.5 ng/mL
Method: (§1)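 Drug sensitivity and resistance testing on K562-aAPC-expanded normal NK cells: 5 concentrations (10-fold steps over a 10,000-fold range), 72 h at 37 °C, viability by CellTiter-Glo normalised to DMSO and benzethonium chloride controls; DSS from the fitted curve.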

[28] = tested on: normal NK cells expanded with K562-aAPC; experiment: drug sensitivity score (DSS) (DSS units); higher = more sensitive; extreme values may be limits of the assay; conditions: 72 h; IL-2 2.5 ng/mL
Method: as §1

Cc1nc(Nc2n[nH]c3c2CN(C(=O)N[C@H](CN(C)C)c2ccccc2)C3(C)C)c2sccc2n1 (max concentration tested 10000 nM)
Conditions	drug sensitivity score
[1]	15.2
[2]	9.34
[3]	8.84
[4]	41.6
[5]	13.5
[6]	14.4
[7]	18.1
[8]	9.24
[9]	8.41
[10]	24.7
[11]	17.5
[12]	23
[13]	29.5
[28]	11.5

percent inhibition of viability [%]
Conditions	1 nM	10 nM	100 nM	1000 nM	10000 nM
[14]	2.81	5.29	27.2	59.5	105
[15]	5.07	3.65	18.4	34.4	98.8
[16]	-6.36	3.67	21.6	29.7	98.9
[17]	-7.89	94	100	100	101
[18]	-7.71	9.61	27.4	49.4	98.1
[19]	-10.4	9.99	31.3	50.3	103
[20]	9.34	25.2	38.2	52.7	103
[21]	5.47	-19.5	8.53	35.1	92.2
[22]	-2.61	16.3	16	31.2	87.1
[23]	5.19	43.4	60.3	59.5	100
[24]	0.99	13.6	41.7	56	104
[25]	0.35	42.8	54.1	57.7	101
[26]	3.44	16.8	81.4	96.4	106
[27]	4.54	6.07	22.4	41.8	101

Nc1ncnc2c1c(COc1cccc(Cl)c1)nn2C1CCOCC1 (max concentration tested 10000 nM)
Conditions	drug sensitivity score
[1]	1.45
[2]	0.03
[3]	0.39
[4]	0
[5]	0.39
[6]	1.92
[7]	0
[8]	0.06
[9]	0
[10]	1.44
[11]	2.23
[12]	0
[13]	0
[28]	0.66

percent inhibition of viability [%]
Conditions	1 nM	10 nM	100 nM	1000 nM	10000 nM
[14]	5.04	-5.45	2.8	11.6	20.2
[15]	-5.02	-2.71	-7	-1.66	12.2
[16]	-12.8	-14.6	-0.61	5.01	13
[17]	-0.63	-0.09	1.3	2.67	5.66
[18]	-11.2	-9.94	-1.24	-2.49	18.9
[19]	2.65	1.05	6.33	7.05	28
[20]	-4.22	-5.6	-4.5	-2.39	10.8
[21]	-7.87	-6	-17.2	5.79	10.6
[22]	11.9	13.8	-0.97	16.6	15
[23]	-1.45	-6.37	0.64	4.1	23.4
[24]	5.62	8.61	4.5	8.08	29.8
[25]	-2.03	-5.09	-3.81	-2.25	1.95
[26]	3.82	3.26	2.76	9.04	2.95
[27]	-1.33	-1.38	-0.63	3.72	15.8

O=C(NOCC1CC1)c1ccc(F)c(F)c1Nc1ccc(I)cc1Cl (max concentration tested 10000 nM)
Conditions	drug sensitivity score
[1]	5.23
[2]	3.11
[3]	0.13
[4]	4.87
[5]	1.26
[6]	16.6
[7]	11.1
[8]	3.64
[9]	4.38
[10]	7.6
[11]	6.98
[12]	5.39
[13]	9.71
[28]	2.2

percent inhibition of viability [%]
Conditions	1 nM	10 nM	100 nM	1000 nM	10000 nM
[14]	2.8	6.04	-10.5	-0.9	95.2
[15]	-7.14	-7.1	14.2	13	17.1
[16]	-3.37	0.57	-3.93	-0.21	13.6
[17]	2.83	1.66	4.76	7.54	65.8
[18]	-2.72	-4.8	-4.96	4.5	21
[19]	9.41	19	33.2	57.9	83.2
[20]	15	14.8	26.2	27.5	80.7
[21]	-5.53	0.69	6.91	8.17	44.4
[22]	-8.27	-11.4	-27.2	-19.6	97.3
[23]	2.61	5.1	12.3	29.5	78
[24]	1.25	1.46	5.39	14.5	82.6
[25]	3.04	1.78	6.53	13.3	59.9
[26]	2.03	1.47	16.1	39	82.4
[27]	-3.45	-0.57	-0.04	3.29	35.4
